In US20250057799A1, “Anti-Inflammatory Methods with Compositions Comprising Site-Specific Isotopically-Modified Fatty Acids” (BioJiva LLC, priority 2021, published 2025):
“Also recorded” adds a separate entry of the source.

Tested on: LPS-inflicted lung inflammation
Assay: LPS-inflicted lung inflammation model in mice (lung morphometry)
Format: in vivo
Conditions: for interalveolar septa thickness (result in words) / alveolar lumen area (result in words): 6-week dietary course then single intranasal LPS; for interalveolar septa thickness (result in words): compared with control mice without LPS; for alveolar lumen area (result in words): compared with control mice without LPS / H-form; for Partition thickness Me (25%; 75%): 6-week dietary course followed by single intranasal LPS, median
Procedure: FIGS. 3-6. Groups of female (f) and male (m) mice received a 6-week course of dietary (H) AA or a 6-week course of deuterated arachidonic acid (D6-ARA, 15 mg/day) followed by single intranasal administration of LPS.
COX and LOX inhibitors can be employed to down-regulate this process, with various efficacy. In contrast, the methods of the present disclosure rely on deuteration of the three oxidation prone sites within PUFA molecules, to substantially slow down the rate limiting step of oxidation (both enzymatic and non-enzymatic) via the isotope effect (IE). Made in high yield via a catalytic process, such D-PUFAs were tested in a lipopolysaccharide (LPS)-inflicted lung inflammation model in mice, a well-known lung inflammation model. (See Example 1.)
For example, the mouse LPS model has been used as a model for human acute lung injury (ALI), as the mouse lung parenchyma is damaged by the generation and release of proteases and reactive oxygen and nitrogen species produced by activated lung macrophages and transmigrated neutrophils in the interstitial and alveolar compartments. The end results are microvascular injury and diffuse alveolar damage with intrapulmonary hemorrhage, edema, and fibrin deposition (Johnson and Ward, J. Clin. Invest., (1974), 54:349-357; Flierl et al., Med. Hypothesis Res., (2006), 3:727,738), which are also features in patients with ALI and the acute respiratory distress syndrome (ARDS) (Kabir et al., Shock, (2002), 17:300-303; Ward, Am. J. Pathol., (1996), 149:1081-1086). This LPS model recapitulates aspects of the inflammatory cascades that are associated with pulmonary inflammation associated with lung disease in humans, and so is useful as a screen for compounds that may disrupt these cascades and attenuate or abort the disease process. As discussed herein, in some embodiments, the D-PUFAs of the present disclosure are administered to break the inflammatory cascade of specific cytokines and chemokines known to induce and amplify lung inflammation. Thus, for example, one can experimentally assess the efficacy of the D-PUFAs by examining whether the levels of inflammation associated markers are reduced. Two such markers, monocyte chemoattractant protein (MCP-1), and tumor necrosis factor alpha (TNF-a), are found to be associated with early and chronic infection and inflammation in humans and are mirrored in rodent models of airway inflammation including the mouse LPS pulmonary inflammation model.
LPS treatment promotes inflammation through various mechanisms including secretion of pro-inflammatory cytokines, eicosanoids and induction of ROS. Following induction by the intranasal administration of LPS, an acute lung inflammation quickly follows. […] Such a pronounced inflammatory infiltration of the interalveolar septa contributed to their destruction and more frequent formation of emphysema foci in this group. […] (See FIGS. 3-6.)
The degree of alveolar lumen area changes in both groups of animals depended on gender.

SMILES | interalveolar septa thickness (result in words) | alveolar lumen area (result in words) | alveolar lumen area (result in words) (listed as D-form) | degree of inflammatory lesion of the lungs (D-form compared to H-form, after 6-week course and LPS) | Partition thickness Me (25%; 75%) (females) [μm] | Partition thickness Me (25%; 75%) (males) [μm] | protective / therapeutic effect compared to other deuterated PUFAs (preliminary data (not shown)) | interalveolar septa thickness (result in words) (listed as AA)
[2H]C([2H])(/C=C\CCCCC)/C=C\C([2H])([2H])/C=C\C([2H])([2H])/C=C\CCCC(=O)O [D-ara, 7,7,10,10,13,13-D6-arachidonic acid] | consistent with controls | consistent with controls | decrease in alveoli lumens | lesser degree of inflammatory lesion | 3.6 | 5.55 | better therapeutic effect; also recorded: best protective effect | –
CCCCC/C=C\C/C=C\C/C=C\C/C=C\CCCC(=O)O [H-ara, arachidonic acid, reference compound] | significantly increased | increase | – | – | 9.1 | – | – | increase
